From patent publication US6767552B2, “Adhesive treatment for oral fungal infection” (Closure Medical Corporation, priority 2001, dated 2004) come the findings set out here.

The series in a line: Observation of the haloprogin / 2-octyl cyanoacrylate monomer composition in a sealed glass vial. Format: physicochemical. The settings on record: 30 mg haloprogin in 2 mL 2-octyl cyanoacrylate monomer. The method, then: A 2-octyl cyanoacrylate monomer composition is prepared by adding 30 mg of haloprogin, an anti-fungal agent, to 2 mL of 2-octyl cyanoacrylate monomer. The mixture is sealed in a glass vial and stirred. The characteristics of the composition are observed at about one minute after preparation and later at least twenty-four hours after preparation.

On to `Clc1cc(Cl)c(OCC#CI)cc1Cl` [haloprogin], for which the “premature polymerization of the monomer” value (at least twenty-four hours after preparation) is recorded as “does not cause premature polymerization”. For the setting “observed about one minute and at least twenty-four hours after preparation”, the “solubility of haloprogin in the monomer” value is given as “soluble”.
